Laboratory results from US11072811B2, “Substrates for covalent tethering of proteins to functional groups or solid surfaces” (PROMEGA CORPORATION, priority 2013, dated 2021).
Entries after “also recorded” stand apart in the source; their conditions may differ.

How the values were obtained:
[1] = tested on: HaloTag® protein; experiment: Binding efficiency to HaloTag protein in lysate (chase with fluorescent HaloTag ligand, SDS-PAGE); conditions: 1 μM, 0-60 min binding; for labeling kinetics / binding efficiency to HaloTag protein in lysate: methotrexate-chloroalkane conjugates, FIG. 3A
Method: a) Binding efficiency to HaloTag® protein in lysate was measured by adding the methotrexate-chloroalkane conjugates to lysate from cells expressing a HaloTag® protein to a final concentration of 1 μM. Following 0-60 mins of binding, the reactions were chased with 1 μM fluorescent HaloTag® ligand. Unbound HaloTag® protein was detected through binding to the fluorescent HaloTag® ligand followed by analysis on SDS-PAGE gel and detection on a fluorescent gel scanner.
a) Binding efficiency to HaloTag® protein in lysate was measured by adding the dexamethasone-chloroalkane conjugates to lysate from cells expressing a HaloTag® protein to a final concentration of 1 μM. Following 0-60 mins of binding, the reactions were chased with 1 μM fluorescent HaloTag® ligand. Unbound HaloTag® protein was detected through binding to the fluorescent HaloTag ligand followed by analysis on SDS-PAGE gel and detection on a fluorescent gel scanner.

[2] = tested on: HaloTag® protein; experiment: Binding efficiency to HaloTag protein in cells (chase with fluorescent HaloTag ligand, SDS-PAGE); format: cell-based; conditions: 10 μM
Method: b) Binding efficiency to HaloTag® protein in cells was measured by adding the methotrexate-chloroalkane conjugates to cells expressing a HaloTag® protein to a final concentration of 10 μM. Following 0-120 mins of binding, the reactions were chased with 5 μM fluorescent HaloTag® ligand. Unbound HaloTag® protein was detected through binding to the fluorescent HaloTag® ligand followed by cell lysis, analysis on a SDS-PAGE gel and detection on a fluorescent gel scanner.
b) Binding efficiency to HaloTag® protein in cells was measured by adding the dexamethasone-chloroalkane conjugates to cells expressing a HaloTag® protein to a final concentration of 10 μM. Following 0-60 mins of binding, the reaction was chased with 5 μM fluorescent HaloTag ligand. Unbound HaloTag® protein was detected through binding to the fluorescent HaloTag® ligand followed by cell lysis, analysis on SDS-PAGE gel and detection on a fluorescent gel scanner.

[3] = target: T1, NanoLuc-DHFR fusion protein (Homo sapiens, UniProt P00374); experiment: Pull-down of NanoLuc-DHFR fusion from living cells onto HALOTAG protein beads; format: cell-based; conditions: HEK293 cells, 10 uM conjugate, 2 h binding, 45 min capture, release with 150 μM methotrexate; FIG. 4
T1 construct: expressed in transfected cells; host or cells: HEK293
T1 sequence (P00374 1-187): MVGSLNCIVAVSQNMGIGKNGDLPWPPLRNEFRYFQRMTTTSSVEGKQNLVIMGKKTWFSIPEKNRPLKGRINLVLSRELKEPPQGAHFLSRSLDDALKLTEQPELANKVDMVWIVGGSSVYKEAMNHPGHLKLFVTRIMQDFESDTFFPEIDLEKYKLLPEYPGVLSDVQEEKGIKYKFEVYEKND
Method: HEK293 cells were plated and transfected using PEI with plasmid DNA encoding a NANOLUC-DHFR fusion in wells of a 96-well plate. The DNA was diluted 1:50 with a promoterless carrier DNA plasmid (pCI) to a final concentration of 80 ng total DNA per well. Twenty-four hours post-transfection, cells were serum starved for additional 24 hours and then treated with […] 10 uM PBI-4848 or PBI-5015 while control cells were not treated with the conjugated drug. Following equilibration binding of 2 h, the media was removed, and the cells quickly washed with PBS and lysed in detergent-based lysis buffer for 10 min. Cell lysates were then transferred to wells of a 96-well plate containing 0.5 μl settled paramagnetic HALOTAG protein beads and incubated with shaking for 45 min. Following binding, the unbound fraction was removed, the HALOTAG protein paramagnetic beads washed, 150 μM unconjugated methotrexate added, and the captured NANOLUC:DHFR specifically released from the beads by competition with the unconjugated methotrexate for 60 min. The released NANOLUC:DHFR (+PBI-5015 or +PBI-4848) and control samples were detected by NANOGLO luciferase detection reagent.

[4] = target: T2, glucocorticoid receptor (GR) (Homo sapiens, UniProt P04150); experiment: Glucocorticoid receptor competitor assay (fluorescence polarization); format: binding; conditions: dexamethasone-chloroalkane conjugates; FIG. 7
T2 construct: purchased Life Technology
T2 sequence (P04150 1-777): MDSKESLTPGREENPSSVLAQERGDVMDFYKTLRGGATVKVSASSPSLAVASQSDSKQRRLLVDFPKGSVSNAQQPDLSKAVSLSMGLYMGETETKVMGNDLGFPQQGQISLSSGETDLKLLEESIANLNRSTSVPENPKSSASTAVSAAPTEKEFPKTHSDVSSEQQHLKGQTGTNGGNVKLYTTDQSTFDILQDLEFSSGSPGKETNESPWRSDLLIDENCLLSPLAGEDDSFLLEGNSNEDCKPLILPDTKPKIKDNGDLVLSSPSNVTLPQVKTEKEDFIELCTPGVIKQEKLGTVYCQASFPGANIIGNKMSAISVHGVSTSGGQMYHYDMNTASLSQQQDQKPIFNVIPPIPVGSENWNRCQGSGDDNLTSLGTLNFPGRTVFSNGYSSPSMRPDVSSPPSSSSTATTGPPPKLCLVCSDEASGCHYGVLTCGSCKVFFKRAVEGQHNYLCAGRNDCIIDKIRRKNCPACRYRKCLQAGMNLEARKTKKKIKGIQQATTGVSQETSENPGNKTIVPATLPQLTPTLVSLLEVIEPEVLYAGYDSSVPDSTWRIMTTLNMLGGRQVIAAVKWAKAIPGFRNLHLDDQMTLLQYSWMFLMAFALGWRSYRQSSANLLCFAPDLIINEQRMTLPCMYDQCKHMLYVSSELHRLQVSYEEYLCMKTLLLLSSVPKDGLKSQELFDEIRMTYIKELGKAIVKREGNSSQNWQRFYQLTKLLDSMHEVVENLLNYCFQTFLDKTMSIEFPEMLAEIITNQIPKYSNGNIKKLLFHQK
Text: c) Binding efficiency to the target glucocorticoid receptor (GR) was done using the glucocorticoid receptor competitor assay (Life Technology) as recommended by the manufacturer.

[5] = target: T3, NanoLuc:GR fusion (Homo sapiens, UniProt P04150); experiment: Pull-down of NanoLuc:GR fusion from live cells onto HaloTag protein beads; format: cell-based; conditions: HEK293 cells, 10 μM conjugate, 2 h binding, 45 min capture, release with 150 μM Dexamethasone; FIG. 8
T3 construct: expressed in transfected cells; host or cells: HEK293
T3 sequence (P04150 1-777): T2 sequence (P04150 1-777)
Method: HEK293 cells were plated and transfected using PEI with plasmid DNA encoding NanoLuc:GR fusion in wells of a 96-well plate. The DNA was diluted 1:50 with a promoterless carrier DNA plasmid (pCI neo) to a final concentration of 80 ng total DNA per well. Twenty-four hours post-transfection, cells were serum starved for additional 24 hours then incubated with a final concentration of 10 μM PBI-4980 or PBI-4025 while control cells were not treated with the conjugated drug. […] The released NanoLuc:GR (+PBI-4980 or +PBI-4025) and control samples were detected by using the NanoGlo® assay reagent (Promega Corp).

[6] = methotrexate-chloroalkane conjugates, 0-120 min binding, FIG. 3B

Q: Which “labeling kinetics / binding efficiency to HaloTag protein in lysate” value [1] does the source give for `CN(Cc1cnc2nc(N)nc(N)c2n1)c1ccc(C(=O)NC(CCC(=O)NCCOCCOCCCCCCCl)C(=O)O)cc1` (centres unmarked) [PBI-4848] here?
A: fast labeling kinetics

Q: What about the “cell permeability/binding efficiency to HaloTag protein in cells” value [2, 6] of the same compound?
A: best cell permeability/binding efficiency; also recorded: higher cell permeability

Q: What about the “pull-down of Nluc:DHFR fusion from living cells” value [3] of the same compound?
A: only PBI-5015 efficiently pulled down

Q: With `CN(Cc1cnc2nc(N)nc(N)c2n1)c1ccc(C(=O)NC(CCC(=O)NCCCCCNC(=O)OCCOCCOCCOC(=O)NCCOCCOCCCCCCCl)C(=O)O)cc1` (centres unmarked) [PBI-5015] as the compound, how does the “labeling kinetics / binding efficiency to HaloTag protein in lysate” value [1] read?
A: fast labeling kinetics

Q: And the “cell permeability/binding efficiency to HaloTag protein in cells” value [2, 6]?
A: good cell permeability and binding efficiency

Q: What about the “pull-down of Nluc:DHFR fusion from living cells” value [3] of the same compound?
A: efficiently pulled down

Q: `C[C@@H]1CC2C3CCC4=CC(=O)C=C[C@]4(C)[C@@]3(F)[C@@H](O)C[C@]2(C)[C@@]1(O)C(=O)NCCOCCOCCOCCOCCC(=O)NCCOCCOCCCCCCCl` (some centres unmarked) [PBI-4025] was tested. Which “affinity / binding efficiency to glucocorticoid receptor” value [4] did it give?
A: highest affinity; also recorded: best binding efficiency; also recorded: higher affinity

Q: Which results are given for `C[C@@H]1CC2[C@@H]3CCC4=CC(=O)C=C[C@]4(C)[C@@]3(F)[C@@H](O)C[C@]2(C)[C@@]1(O)C(=O)NCCCCCNC(=O)OCCOCCOCCOC(=O)NCCOCCOCCCCCCCl` (some centres unmarked) [PBI-4980, Dexamethasone Carbamate Chloroalkane]?
A: efficiency of Nluc:GR fusion pull down from live cells [5]: significantly higher than via PBI-4025; binding kinetics to HaloTag protein in lysate ([1]; dexamethasone-chloroalkane conjugates, FIG. 6A): faster binding kinetics; cell permeability/binding efficiency to HaloTag protein in cells ([2]; dexamethasone-chloroalkane conjugates, 0-60 min binding, FIG. 6B): best cell permeability/binding efficiency; affinity / binding efficiency to glucocorticoid receptor [4]: best binding efficiency
